ChEMBL document CHEMBL5108007, “High ligand efficiency quinazoline compounds as novel A2A adenosine receptor antagonists” (Eur J Med Chem, 2022)

Target: Adenosine receptor A2a (Homo sapiens, UniProt P29274)
Test: Displacement of [3H]ZM241385 from human adenosine A2A receptor expressed in HEK293 cell membrane incubated for 1 hr by microplate beta scintillation counting based radioligand inhibition assay
Format: cell membranes

Chain of Adenosine receptor A2a (P29274 whole entry): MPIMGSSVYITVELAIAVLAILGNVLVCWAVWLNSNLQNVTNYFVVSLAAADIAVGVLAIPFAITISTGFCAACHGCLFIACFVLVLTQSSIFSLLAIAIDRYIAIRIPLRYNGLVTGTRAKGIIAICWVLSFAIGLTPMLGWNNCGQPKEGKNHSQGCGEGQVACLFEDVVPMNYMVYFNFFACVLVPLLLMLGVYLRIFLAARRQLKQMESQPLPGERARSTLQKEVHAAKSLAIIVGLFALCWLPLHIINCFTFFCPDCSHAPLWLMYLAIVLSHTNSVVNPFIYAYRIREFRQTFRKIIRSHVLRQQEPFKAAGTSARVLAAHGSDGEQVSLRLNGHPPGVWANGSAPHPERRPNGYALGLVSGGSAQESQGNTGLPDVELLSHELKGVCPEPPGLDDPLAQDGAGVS

SMILES | Ki [µM]
c1ccc(-c2ncnc3ccccc23)cc1 | 2.3
Nc1nc(-c2ccccc2[N+](=O)[O-])c2ccccc2n1 | > 10
NCc1nc(-c2ccccc2)c2ccccc2n1 | > 10
Nc1nc(-c2ccccc2F)c2ccccc2n1 | 0.456
N#Cc1cccc(-c2nc(N)nc3ccccc23)c1 | 0.586
Nc1nc(-c2ccccc2)c2ccccc2n1 | 0.198
Cc1ccccc1-c1nc(N)nc2ccccc12 | 3.3
c1ccc(CCNc2ncnc3ccccc23)cc1 | > 10
Nc1nc(-c2ccoc2)c2ccccc2n1 | 0.696
COc1ccc(-c2nc(N)nc3ccccc23)cc1 | 0.736
CC(C)(C)c1ccc(-c2nc(N)nc3ccccc23)cc1 | > 10
C(#Cc1ncnc2ccccc12)c1ccccc1 | 4
Cc1cccc(C)c1-c1nc(N)nc2ccccc12 | > 10
NCc1nc(-c2ccco2)c2ccccc2n1 | > 10
Nc1nc(NCc2ccccc2)c2ccccc2n1 | > 10
Nc1nc(Nc2ccccc2)c2ccccc2n1 | > 10
Clc1nc(-c2ccccc2)c2ccccc2n1 | > 10
Nc1nc(-c2ccccc2N)c2ccccc2n1 | 2
Nc1nc(-c2cccs2)c2ccccc2n1 | 0.171
Nc1nc(-c2ccco2)c2ccccc2n1 | 0.089
Oc1nc(-c2ccccc2)c2ccccc2n1 | > 10
NCc1nc(NCCc2ccccc2)c2ccccc2n1 | > 10
Cc1ccc(-c2nc(N)nc3ccccc23)cc1 | 1.5
Nc1nc(NCCc2ccccc2)c2ccccc2n1 | > 10
COc1ccccc1-c1nc(N)nc2ccccc12 | 0.651
Nc1nc(CCc2ccccc2)c2ccccc2n1 | > 10
COc1cccc(-c2nc(N)nc3ccccc23)c1 | 0.708
Nc1nc(-c2ccc(F)cc2)c2ccccc2n1 | 0.08
Nc1nc(-c2ccccc2)nc2ccccc12 | > 10
Nc1nc(-c2cccc(F)c2)c2ccccc2n1 | 0.174
